Reference: PubChem BioAssay (NCI)
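1) Cells in 96-well plates. 2) Compound, 48 h, 5 concentrations. 3) Linear interpolation between surrounding doses. 4) Unreached endpoint = highest concentration. GI50 marks 50% less growth. The concentration for full growth arrest is given as TGI.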

How the values were obtained:
Assay in all cases: DTP human tumour cell line panel, 48 h
BT-549 breast = test system: BT-549 breast
CAKI-1 renal = test system: CAKI-1 renal
HOP-92 NSCLC = test system: HOP-92 NSCLC
KM12 colon = test system: KM12 colon
MCF7 breast = test system: MCF7 breast
MDA-MB-231 breast = test system: MDA-MB-231 breast
NCI-H460 lung = test system: NCI-H460 lung
NCI-H522 lung = test system: NCI-H522 lung
SF-295 CNS = test system: SF-295 CNS
UACC-62 melanoma = test system: UACC-62 melanoma

Row | Structure (SMILES) | GI50 (BT-549 breast) [µM] | TGI (BT-549 breast) [µM] | GI50 (CAKI-1 renal) [µM] | TGI (CAKI-1 renal) [µM] | GI50 (HOP-92 NSCLC) [µM] | TGI (HOP-92 NSCLC) [µM] | GI50 (KM12 colon) [µM] | TGI (KM12 colon) [µM] | GI50 (MCF7 breast) [µM] | TGI (MCF7 breast) [µM] | GI50 (MDA-MB-231 breast) [µM] | TGI (MDA-MB-231 breast) [µM] | GI50 (NCI-H460 lung) [µM] | TGI (NCI-H460 lung) [µM] | GI50 (NCI-H522 lung) [µM] | TGI (NCI-H522 lung) [µM] | GI50 (SF-295 CNS) [µM] | TGI (SF-295 CNS) [µM] | GI50 (UACC-62 melanoma) [µM] | TGI (UACC-62 melanoma) [µM]
1 | [Cu].c1ccc2c(c1)C1=NC2=NC2=NC(=NC3=NC(=NC4=NC(=N1)c1ccccc14)c1ccccc13)c1ccccc12 | > 100 | > 100 | > 100 | > 100 | > 100 | > 100 | > 100 | > 100 | > 100 | > 100 | > 100 | > 100 | > 100 | > 100 | > 100 | > 100 | > 100 | > 100 | > 100 | > 100
2 | Nc1nc(N)c2cc(S(=O)(=O)c3cccc(C(F)(F)F)c3)ccc2n1 |  |  | > 100 | > 100 | 3.56 | 38 |  |  | 5.7 | > 100 | 9.75 | > 100 | 0.575 | > 100 | 3.05 | > 100 | 2.57 | 97.5 | 3.41 | > 100
3 | CC(C)(Sc1cc(C(C)(C)C)c(O)c(C(C)(C)C)c1)Sc1cc(C(C)(C)C)c(O)c(C(C)(C)C)c1 |  | > 100 |  | > 100 |  |  |  | > 100 |  | > 100 |  | > 100 |  | > 100 |  | > 100 |  | > 100 |  | > 100
4 | O=c1oc2ccccc2cc1P(=O)(O)O |  | > 100 |  | > 100 |  | > 100 |  |  |  | > 100 |  | > 100 |  | > 100 |  | > 100 |  | > 100 |  | > 100
5 | OC(c1ccccc1)c1c(-c2ccccc2)[nH]c(-c2ccccc2)c1C(O)c1ccccc1 (stereo not given) |  |  |  | 6.75 |  | 5.46 |  | 6.09 |  | 19.1 |  |  |  | 14.2 |  | 11.5 |  | 38.6 |  | 7.97
6 | C[C@]12CC[C@H]3[C@@H](CCC4=CC(=O)CC[C@@]43C)[C@]1(O)CC[C@]2(O)C(=O)CO |  | > 100 |  | > 100 |  |  |  | > 100 |  | > 100 |  | > 100 |  | > 100 |  | > 100 |  | > 100 |  | > 100
7 | CCN(CC)CCN1C(=O)C2C3C(C)=CC(OC(C)=O)(CC3C)C2C1=O (stereo not given) | > 100 | > 100 | > 100 | > 100 | > 100 | > 100 | > 100 | > 100 |  |  | > 100 | > 100 |  |  | > 100 | > 100 | > 100 | > 100 | > 100 | > 100
8 | O=C(c1ccccc1)c1nc2ccc(Cl)cc2cc1C(Br)Br |  | 1.12 |  | 1.75 |  |  |  | 1.06 |  | 1.96 |  |  |  | 1.31 |  | 3.68 |  | 0.939 |  | 2.06
9 | c1ccc2[nH]c(-c3ccc(Nc4nc(N5CCCC5)nc5[nH]ncc45)cc3)nc2c1 | 1.68 | 3.47 | 1.83 | 3.48 | 1.14 | 2.75 |  |  | 0.213 | 0.619 |  |  | 0.412 | 1.77 | 0.244 | 1.07 | 0.204 | 0.477 |  | 
10 | Clc1ccc(NCNC2Nc3ccccc3N2)cc1Cl |  |  |  | > 100 |  | > 100 |  | 92.5 |  | 29.1 |  | > 100 |  | > 100 |  | 56.2 |  | > 100 |  | > 100
11 | COc1ccc(-c2cc(=O)c3c(C)ccnc3[nH]2)cc1 |  | 67.3 |  | > 100 |  |  |  | 23.2 |  | > 100 |  | > 100 | 6.19 | > 100 |  | > 100 | 19.5 | > 100 |  | 32.6
12 | N#Cc1cnc2ccc(NCc3cnc[nH]3)cc2c1Nc1ccc(F)c(Cl)c1 | > 100 | > 100 |  |  | 1.08 | > 100 | > 100 | > 100 | 20.1 | > 100 | 17 | > 100 | 10.3 | > 100 | 4.6 | > 100 | 20.1 | > 100 | 13.9 | 75
13 | CCN(Cc1ccccc1)c1ccc(/C=C2\COc3ccccc3C2=O)cc1 | 340 | > 1000 |  |  | 553 | > 1000 | 376 | > 1000 | 69.4 | > 1000 | 896 | > 1000 | > 1000 | > 1000 | 156 | > 1000 | > 1000 | > 1000 | 304 | > 1000
